Values quoted from earlier work in article PMC10814857, “Functional Classification and Interaction Selectivity Landscape of the Human SH3 Domain Superfamily” (Cells, 2024).
Like-named read-outs stand apart in the source and are kept apart here.

Columns and labels:
[1] = biological target: p85A SH3 domain; parameters: method as in ref [3] (a number printed in a supplementary file, which may have a reference list of its own: not looked up in the article's list); details: SPR, Table S4, ref [3]; cited from earlier work
[2] = biological target: GRB2-2 SH3 domain; details: Table S4, cited from earlier work
Method: (§1) page 6: […] […] […] PAK2 […] PXXXPR PXXXPR 1.05 ITC [34] TRSVI ITSN1-2 Synthetic […] Exceptional [W/F][R/W]xSx[A/ 53 ITC [29] peptide G][F/Y][L/V]xGP[ W/L] NCK1-2 N-WASP GP[…] … 147 HSQC [64] VA[…] 199 PLCG1 SOS1 AAPV[…] … 0.20mM SPR [75] AADS[…] 0.40mM AAES[…] 0.70mM AAIA[…] 0.28mM BAIAP2L1 EspFUR45 IPP[…] … 0.5 nM ITC [76] (IRTKS) 9 SORBS2- Synthetic […] Exceptional XRXGXAYLXYVX 38 ITC [29] 1 peptide Synthetic RL[…](L/P) ...

[3] = biological target: GRB2-1 SH3 domain; details: Table S4, cited from earlier work
Method: as §1

[4] = biological target: PLCG1 SH3 domain; details: PLCG1, SPR, Table S4; ref [75]; cited from earlier work
Method: as §1

[5] = biological target: GRAP2-2 SH3 domain; details: GRAP2-2, ITC, Table S4, cited from earlier work
Method: as §1

[6] = biological target: NCK1-1 SH3 domain; details: NCK1-1, HSQC, Table S4; ref [64]; cited from earlier work
[7] = biological target: ABL1 SH3 domain; parameters: method as in ref [67] (a number printed in a supplementary file, which may have a reference list of its own: not looked up in the article's list); details: ABL1, FL, Table S4; ref [67]; cited from earlier work
[8] = biological target: CRK-1 SH3 domain; parameters: method as in ref [71] (a number printed in a supplementary file, which may have a reference list of its own: not looked up in the article's list); details: CRK-1, SPR, Table S4; ref [71]; cited from earlier work
[9] = biological target: EPS8L1 SH3 domain; parameters: method as in ref [7] (a number printed in a supplementary file, which may have a reference list of its own: not looked up in the article's list); details: EPS8L1, ITC, Table S4; ref [7]; cited from earlier work
[10] = biological target: SORBS2-1 SH3 domain; details: SORBS2-1, ITC, Table S4; ref [29]; cited from earlier work
Method: as §1

[11] = biological target: SRC SH3 domain; parameters: method as in 3 sources, one per row (each row's own in cited_ref): ref [23] (a number printed in a supplementary file, which may have a reference list of its own: not looked up in the article's list) ||| ref [62] (a number printed in a supplementary file, which may have a reference list of its own: not looked up in the article's list) ||| ref [17] (a number printed in a supplementary file, which may have a reference list of its own: not looked up in the article's list); details: FL, cited from earlier work
[12] = biological target: bPIX (ARHGEF7) SH3 domain; parameters: method as in 3 sources, one per row (each row's own in cited_ref): ref [33] (a number printed in a supplementary file, which may have a reference list of its own: not looked up in the article's list) ||| ref [60] (a number printed in a supplementary file, which may have a reference list of its own: not looked up in the article's list) ||| ref [34] (a number printed in a supplementary file, which may have a reference list of its own: not looked up in the article's list); details: ITC, cited from earlier work
[13] = biological target: FYN SH3 domain; parameters: method as in ref [73] (a number printed in a supplementary file, which may have a reference list of its own: not looked up in the article's list); details: HSQC, Table S4, ref [73], cited from earlier work
[14] = biological target: NCK1-3 SH3 domain; details: NCK1-3, HSQC, Table S4; ref [64]; cited from earlier work
Method: (§2) page 6: […][…] […] PAK2 […] PXXXPR PXXXPR 1.05 ITC [34] TRSVI ITSN1-2 Synthetic […] Exceptional [W/F][R/W]xSx[A/ 53 ITC [29] peptide G][F/Y][L/V]xGP[ W/L] NCK1-2 N-WASP GP[…] … 147 HSQC [64] VA[…] 199 PLCG1 SOS1 AAPV[…] … 0.20mM SPR [75] AADS[…] 0.40mM AAES[…] 0.70mM AAIA[…] 0.28mM BAIAP2L1 EspFUR45 IPP[…] … 0.5 nM ITC [76] (IRTKS) 9 SORBS2- Synthetic […] Exceptional XRXGXAYLXYVX 38 ITC [29] 1 peptide Synthetic RL[…](L/P) ...

[15] = biological target: CRK-1 SH3 domain; parameters: method as in 3 sources, one per row (each row's own in cited_ref): ref [15] (a number printed in a supplementary file, which may have a reference list of its own: not looked up in the article's list) ||| ref [69] (a number printed in a supplementary file, which may have a reference list of its own: not looked up in the article's list) ||| ref [17] (a number printed in a supplementary file, which may have a reference list of its own: not looked up in the article's list); details: CRK-1, FL, Table S4, cited from earlier work
[16] = biological target: NCK1-2 SH3 domain; details: NCK1-2, HSQC, Table S4; ref [64]; cited from earlier work
Method: as §2

[17] = biological target: STAC1 SH3 domain; details: STAC1, ITC, Table S4; ref [59]; cited from earlier work
Method: as §1

[18] = biological target: STAC2 SH3 domain; details: STAC2, ITC, Table S4; ref [59]; cited from earlier work
Method: as §1

[19] = biological target: NCF1-2 (p47phox) SH3 domain; parameters: method as in ref [14] (a number printed in a supplementary file, which may have a reference list of its own: not looked up in the article's list); details: FL, Table S4, ref [14]; cited from earlier work

In the case of HSKYPLPPLPSL [published peptide PD1], the Kd [1] is listed as 120 µM.
For PVPPPVPPRRRP [published SOS1 peptide], the Kd ([2]; GRB2-2, ITC, ref [78]) is given as 117 µM, the Kd ([2]; GRB2-2, NMR, ref [47]) is given as 142 µM and the Kd ([3]; GRB2-1, ITC, ref [78]) is given as 38.6 µM. For the same sequence, the Kd ([3]; GRB2-1, NMR, ref [47]) was 37 µM.
In the case of AADSPPAIPPRQPT [published SOS1 peptide], the Kd [4] is given as 0.4 µM.
For “PAPSIDRSTKPPL [published SLP-76 peptide]”, the Kd ([5]; ref [55]) is given as 0.181 µM and the Kd ([2]; GRB2-2, ITC, ref [55]) is given as 9.7 µM.
In the case of APPPPPPSRGG [published N-WASP peptide], the Kd [6] is listed as greater than 1000 µM.
In the case of PSIDRSTKP [published SLP-76 peptide], the Kd ([5]; ref [57]) is listed as 30 µM.
For PSPHGTRRHLPSPP [published SOS1 peptide], the Kd ([3]; GRB2-1, NMR, ref [47]) is listed as 208 µM.
For APTYPPPAPP, the Kd [7] is listed as 5 µM.
For “SLPGPLTPVAEGQEIGMNTETSGTSAREKELSPPPGLPSKIGSISRQSSL [published ST12 peptide]”, the Kd [8] is listed as 0.91 µM.
For “DVADVPPPLPLKGSVADYGNLMENQDLLGSPTPPPPPPHQRHLPPPLPSKT [published DOCK180 peptide]”, the Kd [8] is given as 0.35 µM.
In the case of APSYSPPPPP, the Kd [7] is listed as 1.5 µM.
In the case of PPVPNPDYEPIR [published CD3ε peptide], the Kd [9] is given as 24 µM.
In the case of AAPVPPPVPPRRRP [published SOS1 peptide], the Kd [4] is listed as 0.2 µM.
In the case of ESPPLLPPREPV [published SOS1 peptide], the Kd ([3]; GRB2-1, ITC, ref [79]) is given as 117 µM.
For AAIAGPPVPPRQST [published SOS1 peptide], the Kd [4] is listed as 0.28 µM.
In the case of PKLPPKTYKREH [published SOS1 peptide], the Kd ([2]; GRB2-2, NMR, ref [47]) is listed as 156 µM.
For APTYSPPPPP, the Kd [7] is listed as 0.4 µM.
In the case of HSKRPLPPLPSL [published peptide PD1R], the Kd [1] is given as 40 µM.
In the case of “RLPLRPPLPHTS [published synthetic peptide (SORBS2-1 ligand)]”, the Kd [10] is listed as 121 µM.
In the case of APSIDRSTKPP [published SLP-76 peptide], the Kd ([5]; ref [55]) is given as 0.675 µM.
In the case of “RALPPLPRY [published synthetic peptide (SRC ligand)]”, the Kd ([11]; Table S4, ref [62]) is listed as 7.8 µM.
For TAAPPPPPPSRP [published N-WASP peptide], the Kd [6] is listed as greater than 1000 µM.
In the case of “EETAPPVIAPRPDHTKSIYTRSVI [published PAK2 peptide]”, the Kd ([12]; Table S4, ref [34]) is given as 1.05 µM.
For “KRISPPTPKPRPPR [published PI3K-p85a peptide]”, the Kd ([13]; unit mM in the cell) is listed as 0.003 mM.
For “KPSRPPRPSRPPPPTPRRPAS [published Itch peptide]”, the Kd ([12]; Table S4, ref [33]) is listed as 1.59 µM.
For “LRTGEAYLRYVD [published synthetic peptide (SORBS2-1 ligand)]”, the Kd [10] is given as 38 µM.
In the case of “VAPPPPPPPPPPPG [published N-WASP peptide]”, the Kd [14] is given as greater than 1 µM.
For PPPALPPKKR [published C3G peptide], the Kd ([3]; GRB2-1, FL, ref [15]) is given as 142 µM, the Kd ([15]; ref [15]) is given as 1.9 µM and the Kd ([15]; ref [69]) is given as 1.89 µM.
For VPPPVPPRRR [published SOS1 peptide], the Kd ([3]; GRB2-1, FL, ref [77]) is listed as 5.6 µM.
In the case of IAGPPVPPRQST [published SOS1 peptide], the Kd ([3]; GRB2-1, ITC, ref [79]) is given as 82 µM.
For “IQPPPVNRNLKPDRK [published Gab2b peptide]”, the Kd ([2]; GRB2-2, ITC, ref [48]) is listed as 17.4 µM.
In the case of DSPPAIPPRQPT [published SOS1 peptide], the Kd ([3]; GRB2-1, ITC, ref [79]) is given as 55 µM.
For PGPPPPPGLPSD [published N-WASP peptide], the Kd [14] is listed as greater than 1 µM.
For VSLARRPLPPLP [published peptide VSL12], the Kd ([11]; Table S4, ref [23]) is given as 0.45 µM.
In the case of VAVPPPPPNRMY [published N-WASP peptide], the Kd [14] is listed as 1 µM and the Kd [16] is listed as 199 µM.
For “EDEPEIPLSPRPRP [published CaV1.1 peptide]”, the Kd [17] is given as 3.92 µM and the Kd [18] is given as 9.31 µM.
In the case of GPPPPPARGRGA [published N-WASP peptide], the Kd [16] is given as 147 µM and the Kd [6] is given as greater than 1000 µM.
For “SAPSGPPPPPPSVL [published N-WASP peptide]”, the Kd [14] is given as greater than 1 µM and the Kd [6] is given as greater than 1000 µM.
For “PPRPTPVAPGSSKA [published PI3K-p85a peptide]”, the Kd [13] is listed as 0.3 mM.
For YEVPPPVPPRRR [published SOS1 peptide], the Kd ([3]; GRB2-1, FL, ref [17]) is given as 5 µM, the Kd ([11]; Table S4, ref [17]) is given as 25 µM and the Kd ([15]; ref [17]) is given as 6 µM.
In the case of RAPTMPPPLPP [published 3BP-1 peptide], the Kd [7] is given as 34 µM.
In the case of “PPRPLPVAPGSSKA [published PI3K-p85a peptide]”, the Kd [13] is given as 0.05 mM.
In the case of “NVNEVKDPYPSADFPGDDEEDEPEIPLSPRPRPLAELQLKEKAVPIPE [published CaV1.1 peptide]”, the Kd [17] is listed as 0.78 µM and the Kd [18] is listed as 1.85 µM.
In the case of “QPPSNPPPRPPAEAR [published p22phox peptide]”, the Kd [19] is given as 8.67 µM.
For AAESPPLLPPREPV [published SOS1 peptide], the Kd [4] is given as 0.7 µM.
For APPLPPRNRPRL [published peptide APP12], the Kd ([11]; Table S4, ref [23]) is listed as 1.2 µM.
In the case of LRRQAPPPPPPS [published N-WASP peptide], the Kd [6] is given as greater than 1000 µM.
For “QPPSNPPPRPPAEARKKPSE [published p22phox peptide]”, the Kd [19] is listed as 0.64 µM.
In the case of PPPVPPRRRR [published SOS1 peptide], the Kd ([3]; GRB2-1, FL, ref [15]) is listed as 3.5 µM and the Kd ([15]; ref [15]) is listed as 5.2 µM.
In the case of PKPLPRFPKK [published SOS1 peptide], the Kd ([3]; GRB2-1, NMR, ref [47]) is given as 250 µM.
In the case of “NENEDKSPYPNPETTGEEDEEEPEMPVGPRPRPLSELHLKEKAVPMPE [published CaV1.2 peptide]”, the Kd [18] is listed as 19.3 µM.
For NRMYPPPPPALP [published N-WASP peptide], the Kd [14] is given as greater than 1 µM.
